{
  "source": "ChEMBL document CHEMBL4334464",
  "about": "“From Phenylthiazoles to Phenylpyrazoles: Broadening the Antibacterial Spectrum toward Carbapenem-Resistant Bacteria” (J Med Chem, 2019)",
  "data": [
    {"test_system": "Staphylococcus aureus", "assay": "Antibacterial activity against Methicillin-sensitive Staphylococcus aureus ATCC 6538 clinical isolates after 18 to 20 hrs in aerobic condition by CLSI protocol based broth microdilution assay", "assay_type": "functional", "conditions": "not given", "units": {"MIC": "µg/mL"}, "values": [
      {"smiles": "C/C(=N\\NC(=N)N)c1cnn(-c2ccc(C#CC3CCCCC3)cc2)c1C", "MIC": 2}
    ]},
    {"test_system": "Staphylococcus aureus", "assay": "Antibacterial activity against linezolid-resistant/Methicillin-resistant Staphylococcus aureus NRS119 clinical isolates after 18 to 20 hrs in aerobic condition by CLSI protocol based broth microdilution assay", "assay_type": "functional", "conditions": "not given", "units": {"MIC": "µg/mL"}, "values": [
      {"smiles": "C/C(=N\\NC(=N)N)c1cnn(-c2ccc(C#CC3CCCCC3)cc2)c1C", "MIC": 2}
    ]},
    {"test_system": "Staphylococcus aureus", "assay": "Antibacterial activity against Methicillin-resistant Staphylococcus aureus NRS385-USA500 clinical isolates after 18 to 20 hrs in aerobic condition by CLSI protocol based broth microdilution assay", "assay_type": "functional", "conditions": "not given", "units": {"MIC": "µg/mL"}, "values": [
      {"smiles": "C/C(=N\\NC(=N)N)c1cnn(-c2ccc(C#CC3CCCCC3)cc2)c1C", "MIC": 2}
    ]},
    {"test_system": "Staphylococcus aureus", "assay": "Antibacterial activity against Methicillin-resistant Staphylococcus aureus USA700-NRS386 clinical isolates after 18 to 20 hrs in aerobic condition by CLSI protocol based broth microdilution assay", "assay_type": "functional", "conditions": "not given", "units": {"MIC": "µg/mL"}, "values": [
      {"smiles": "C/C(=N\\NC(=N)N)c1cnn(-c2ccc(C#CC3CCCCC3)cc2)c1C", "MIC": 2}
    ]},
    {"test_system": "Staphylococcus aureus", "assay": "Antibacterial activity against vancomycin-resistant Staphylococcus aureus isolate 10 after 18 to 20 hrs in aerobic condition by CLSI-based broth microdilution assay", "assay_type": "functional", "conditions": "not given", "units": {"MIC": "µg/mL"}, "values": [
      {"smiles": "C/C(=N\\NC(=N)N)c1cnn(-c2ccc(C#CC3CCCCC3)cc2)c1C", "MIC": 2}
    ]},
    {"test_system": "Staphylococcus aureus", "assay": "Antibacterial activity against vancomycin-resistant Staphylococcus aureus isolate 12 after 18 to 20 hrs in aerobic condition by CLSI-based broth microdilution assay", "assay_type": "functional", "conditions": "not given", "units": {"MIC": "µg/mL"}, "values": [
      {"smiles": "C/C(=N\\NC(=N)N)c1cnn(-c2ccc(C#CC3CCCCC3)cc2)c1C", "MIC": 2}
    ]},
    {"test_system": "Staphylococcus epidermidis", "assay": "Antibacterial activity against Staphylococcus epidermidis NRS101 after 18 to 20 hrs in aerobic condition by CLSI-based broth microdilution assay", "assay_type": "functional", "conditions": "not given", "units": {"MIC": "µg/mL"}, "values": [
      {"smiles": "C/C(=N\\NC(=N)N)c1cnn(-c2ccc(C#CC3CCCCC3)cc2)c1C", "MIC": 2}
    ]},
    {"test_system": "Enterococcus faecalis", "assay": "Antibacterial activity against vancomycin-resistant Enterococcus faecalis ATCC 51299 clinical isolates after 18 to 20 hrs in aerobic condition by CLSI-based broth microdilution assay", "assay_type": "functional", "conditions": "not given", "units": {"MIC": "µg/mL"}, "values": [
      {"smiles": "C/C(=N\\NC(=N)N)c1cnn(-c2ccc(C#CC3CCCCC3)cc2)c1C", "MIC": 2}
    ]},
    {"test_system": "Enterococcus faecium", "assay": "Antibacterial activity against vancomycin-resistant Enterococcus faecium ATCC 700221 clinical isolates after 18 to 20 hrs in aerobic condition by CLSI-based broth microdilution assay", "assay_type": "functional", "conditions": "not given", "units": {"MIC": "µg/mL"}, "values": [
      {"smiles": "C/C(=N\\NC(=N)N)c1cnn(-c2ccc(C#CC3CCCCC3)cc2)c1C", "MIC": 1}
    ]},
    {"test_system": "Listeria monocytogenes", "assay": "Antibacterial activity against Listeria monocytogenes ATCC 19111 after 18 to 20 hrs in aerobic condition by CLSI-based broth microdilution assay", "assay_type": "functional", "conditions": "not given", "units": {"MIC": "µg/mL"}, "values": [
      {"smiles": "C/C(=N\\NC(=N)N)c1cnn(-c2ccc(C#CC3CCCCC3)cc2)c1C", "MIC": 2}
    ]},
    {"test_system": "Acinetobacter baumannii", "assay": "Antibacterial activity against Acinetobacter baumannii ATCC 19606 clinical isolates after 18 to 20 hrs in aerobic condition by CLSI-based broth microdilution assay", "assay_type": "functional", "conditions": "ATCC 19606 = CIP 70.34 = JCM 6841", "units": {"MIC": "µg/mL"}, "values": [
      {"smiles": "C/C(=N\\NC(=N)N)c1cnn(-c2ccc(C#CC3CCCCC3)cc2)c1C", "MIC": 4}
    ]},
    {"test_system": "Acinetobacter baumannii", "assay": "Antibacterial activity against Acinetobacter baumannii ATCC BAA 1141 clinical isolates after 18 to 20 hrs in aerobic condition by CLSI-based broth microdilution assay", "assay_type": "functional", "conditions": "not given", "units": {"MIC": "µg/mL"}, "values": [
      {"smiles": "C/C(=N\\NC(=N)N)c1cnn(-c2ccc(C#CC3CCCCC3)cc2)c1C", "MIC": 4}
    ]},
    {"test_system": "Acinetobacter baumannii", "assay": "Antibacterial activity against Acinetobacter baumannii NR 17785 clinical isolates after 18 to 20 hrs in aerobic condition by CLSI-based broth microdilution assay", "assay_type": "functional", "conditions": "not given", "units": {"MIC": "µg/mL"}, "values": [
      {"smiles": "C/C(=N\\NC(=N)N)c1cnn(-c2ccc(C#CC3CCCCC3)cc2)c1C", "MIC": 8}
    ]},
    {"test_system": "Escherichia coli", "assay": "Antibacterial activity against Escherichia coli BW25113 clinical isolates after 18 to 20 hrs in aerobic condition by CLSI-based broth microdilution assay", "assay_type": "functional", "conditions": "not given", "units": {"MIC": "µg/mL"}, "values": [
      {"smiles": "C/C(=N\\NC(=N)N)c1cnn(-c2ccc(C#CC3CCCCC3)cc2)c1C", "MIC": 4}
    ]},
    {"test_system": "Escherichia coli", "assay": "Antibacterial activity against Escherichia coli ATCC 35150 clinical isolates after 18 to 20 hrs in aerobic condition by CLSI-based broth microdilution assay", "assay_type": "functional", "conditions": "not given", "units": {"MIC": "µg/mL"}, "values": [
      {"smiles": "C/C(=N\\NC(=N)N)c1cnn(-c2ccc(C#CC3CCCCC3)cc2)c1C", "MIC": 4}
    ]},
    {"test_system": "not listed separately", "assay": "Antibacterial activity against Enterobacter cloacae subsp. cloacae ATCC BAA-1143 clinical isolates after 18 to 20 hrs in aerobic condition by CLSI-based broth microdilution assay", "assay_type": "functional", "conditions": "not given", "units": {"MIC": "µg/mL"}, "values": [
      {"smiles": "C/C(=N\\NC(=N)N)c1cnn(-c2ccc(C#CC3CCCCC3)cc2)c1C", "MIC": 8}
    ]},
    {"test_system": "Klebsiella pneumoniae", "assay": "Antibacterial activity against Klebsiella pneumoniae BAA-1144 clinical isolates after 18 to 20 hrs in aerobic condition by CLSI-based broth microdilution assay", "assay_type": "functional", "conditions": "not given", "units": {"MIC": "µg/mL"}, "values": [
      {"smiles": "C/C(=N\\NC(=N)N)c1cnn(-c2ccc(C#CC3CCCCC3)cc2)c1C", "MIC": 16}
    ]},
    {"test_system": "Salmonella enteritidis", "assay": "Antibacterial activity against Salmonella enteritidis ATCC 13076 clinical isolates after 18 to 20 hrs in aerobic condition by CLSI-based broth microdilution assay", "assay_type": "functional, Salmonella enterica subsp. enterica serovar Enteritidis", "conditions": "Salmonella enterica", "units": {"MIC": "µg/mL"}, "values": [
      {"smiles": "C/C(=N\\NC(=N)N)c1cnn(-c2ccc(C#CC3CCCCC3)cc2)c1C", "MIC": 16}
    ]},
    {"test_system": "Salmonella enteritidis", "assay": "Antibacterial activity against Salmonella enteritidis ATCC 14028 clinical isolates after 18 to 20 hrs in aerobic condition by CLSI-based broth microdilution assay", "assay_type": "functional, Salmonella enterica subsp. enterica serovar Enteritidis", "conditions": "Salmonella enterica", "units": {"MIC": "µg/mL"}, "values": [
      {"smiles": "C/C(=N\\NC(=N)N)c1cnn(-c2ccc(C#CC3CCCCC3)cc2)c1C", "MIC": 32}
    ]},
    {"test_system": "Salmonella typhimurium", "assay": "Antibacterial activity against Salmonella typhimurium ATCC 700720 after 18 to 20 hrs in aerobic condition by CLSI-based broth microdilution assay", "assay_type": "functional, Salmonella enterica subsp. enterica serovar Typhimurium", "conditions": "Salmonella enterica", "units": {"MIC": "µg/mL"}, "values": [
      {"smiles": "C/C(=N\\NC(=N)N)c1cnn(-c2ccc(C#CC3CCCCC3)cc2)c1C", "MIC": 8}
    ]},
    {"test_system": "Shigella flexneri", "assay": "Antibacterial activity against Shigella flexneri ATCC 9199 clinical isolates after 18 to 20 hrs in aerobic condition by CLSI-based broth microdilution assay", "assay_type": "functional", "conditions": "not given", "units": {"MIC": "µg/mL"}, "values": [
      {"smiles": "C/C(=N\\NC(=N)N)c1cnn(-c2ccc(C#CC3CCCCC3)cc2)c1C", "MIC": 8}
    ]},
    {"test_system": "Escherichia coli", "assay": "Antibacterial activity against carbapenem-resistant Escherichia coli BAA-2452 clinical isolates after 18 to 20 hrs in aerobic condition by CLSI-based broth microdilution assay", "assay_type": "functional", "conditions": "not given", "units": {"MIC": "µg/mL"}, "values": [
      {"smiles": "C/C(=N\\NC(=N)N)c1cnn(-c2ccc(C#CC3CCCCC3)cc2)c1C", "MIC": 8}
    ]}
  ]
}
